Molecular target: T1, CCKB receptor (Mus musculus, UniProt P56481)
T1 construct: The whole brains from male mice (CD1 22-25 g; Charles River) were removed; from tissue; host or cells: cerebral cortex membranes of male CD1 mice
T1 sequence (P56481 1-453): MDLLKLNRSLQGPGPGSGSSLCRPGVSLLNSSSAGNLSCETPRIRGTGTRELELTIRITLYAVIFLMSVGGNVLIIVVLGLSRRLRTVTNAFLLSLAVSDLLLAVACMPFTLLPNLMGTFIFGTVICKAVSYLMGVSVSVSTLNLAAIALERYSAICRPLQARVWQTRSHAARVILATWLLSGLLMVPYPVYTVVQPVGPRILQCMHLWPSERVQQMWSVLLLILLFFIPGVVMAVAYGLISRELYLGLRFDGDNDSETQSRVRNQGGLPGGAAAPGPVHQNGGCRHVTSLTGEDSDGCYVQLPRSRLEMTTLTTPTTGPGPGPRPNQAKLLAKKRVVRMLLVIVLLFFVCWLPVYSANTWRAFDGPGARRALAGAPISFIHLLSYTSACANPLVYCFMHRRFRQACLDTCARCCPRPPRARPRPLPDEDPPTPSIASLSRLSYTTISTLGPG
Experiment: CCKB receptor radioligand binding assay in mouse cortical membranes
Conditions: [125I]-CCK8(S) 200 pM, 150 min at 21±3°, read-out: CCKB pKi (converted)
Procedure: The compounds of the examples were tested for binding at the CCKB receptor in mouse cortical membranes by means of a radioligand binding assay. The procedure was as follows:
The whole brains from male mice (CD1 22-25 g; Charles River) were removed and placed in ice-cold buffer (pH 7.2 @ 21±3°) of the following composition (mM); 10 HEPES, 130 NaCl, 4.7 KCl, 5 MgCl2, 1 EDTA and containing 0.25 gl^−1 bacitracin. The cortex was dissected, weighed and homogenised in 40 ml ice-cold buffer using a Teflon-in-glass homogeniser. The homogenate was centrifuged at 39800 g for 20 min […], the supernatant discarded and the pellet resuspended by homogenisation in fresh buffer. The homogenate was recentrifuged (39800 g, 20 min @ 4°) and the final pellet was resuspended in HEPES buffer to give a tissue concentration of 20 mg ml^−1 (original wet weight).
The assay was terminated by rapid filtration through pre-soaked Whatman GF/B filters using a Brandell Cell Harvester. The filters were washed (3×3 ml) with ice-cold 50 mM Tris-HCl (pH 7.4 @ 4° C.) and bound radioactivity determined by counting (1 min) in a gamma-counter.

| Compound | Ki |
| --- | --- |
| O=C(O)c1cccc(NC(=O)c2nc(-c3ccccc3O)[nH]c2CCC23CC4CC(CC(C4)C2)C3)c1 [Example 64, 3-{[5-(2-Adamantan-1-yl-ethyl)-2-(2-hydroxy-phenyl)-1H-imidazole-4-carbonyl]-amino}-benzoic Acid] | 1380 nM |
| O=C(O)c1cc(NC(=O)c2nc(C3CCCCC3)[nH]c2CC2CCCCCC2)cc(C(=O)O)c1 [Example 34, 5-[(5-Cycloheptylmethyl-2-cyclohexyl-1H-imidazole-4-carbonyl)-amino]-isophthalic Acid] | 1580 nM |
| CN(C)c1ccc(-c2nc(C(=O)Nc3cc(C(=O)O)cc(C(=O)O)c3)c(CC3CCCCCC3)[nH]2)cc1 [Example 31, 5-[(5-Cycloheptylmethyl-2-(4-dimethylamino-phenyl)-1H-imidazole-4-carbonyl)-amino]-isophthalic Acid] | 1660 nM |
| O=C(O)CCNC(=O)c1cc(-c2ccccc2)[nH]c1CC12CC3CC(CC(C3)C1)C2 [Example 10, 3-[(2-Adamantan-1-ylmethyl-5-phenyl-1H-pyrrole-3-carbonyl)-amino]-propionic Acid] | 3020 nM |
| COc1cccc(-c2nc(C(=O)Nc3cc(C(=O)O)cc(C(=O)O)c3)c(CC3CCCCCC3)[nH]2)c1 [Example 28, 5-[(5-Cycloheptylmethyl-2-(3-methoxy-phenyl)-1H-imidazole-4-carbonyl)-amino]-isophthalic Acid] | 1230 nM |
| O=C(Nc1cc(-c2nnn[nH]2)cc(-c2nnn[nH]2)c1)c1cc(-c2ccccc2)[nH]c1CC12CC3CC(CC(C3)C1)C2 [Example 2, 2-Adamantan-1-ylmethyl-5-phenyl-1H-pyrrole-3-carboxylic Acid [3,5-bis-(1H-tetrazol-5-yl)-phenyl]-amide] | 49 nM |
| COc1ccc(-c2nc(C(=O)Nc3cc(C(=O)O)cc(C(=O)O)c3)c(CC3CCCCCC3)[nH]2)cc1 [Example 29, 5-[(5-Cycloheptylmethyl-2-(4-methoxy-phenyl)-1H-imidazole-4-carbonyl)-amino]-isophthalic Acid] | 1480 nM |
| O=C(O)c1cc(NC(=O)c2nc(-c3ccc[nH]3)[nH]c2CC2CCCCCC2)cc(C(=O)O)c1 [Example 33, 5-[(5-Cycloheptylmethyl-2-(1H-pyrrol-2-yl)-1H-imidazole-4-carbonyl)-amino]-isophthalic Acid] | 1860 nM |
| O=C(Nc1cccc(CO)c1)c1nc(-c2ccccc2)[nH]c1CCC12CC3CC(CC(C3)C1)C2 [Example 48, 5-(2-Adamantan-1-yl-ethyl)-2-phenyl-1H-imidazole-4-carboxylic Acid (3-hydroxymethyl-phenyl)-amide] | 269 nM |
| O=C(O)c1cc(NC(=O)c2ncn(Cc3ccccc3)c2CC2CCCCCC2)cc(C(=O)O)c1 [Example 36, 5-[(1-Benzyl-5-cycloheptylmethyl-1H-imidazole-4-carbonyl)-amino]-isophthalic Acid] | 3160 nM |
| O=C(O)c1cccc(NC(=O)c2nc(C3CCCCC3)[nH]c2CCc2ccccc2)c1 [Example 88, 3-[(2-Cyclohexyl-5-phenethyl-1H-imidazole-4-carbonyl)-amino]-benzoic Acid] | 6610 nM |
| O=C(O)CNC(=O)c1nc(-c2ccccc2F)[nH]c1CCC12CC3CC(CC(C3)C1)C2 [Example 53, 2-{[5-(2-Adamantan-1-yl-ethyl)-2-(2-fluoro-phenyl)-1H-imidazole-4-carbonyl]-amino}-acetic Acid] | 1660 nM |
| O=C(O)c1cc(NC(=O)c2nc(-c3ccccc3)[nH]c2CCC2CCCCCC2)cc(C(=O)O)c1 [Example 39, 5-{[5-(2-Cycloheptyl-ethyl)-2-phenyl-1H-imidazole-4-carbonyl]-amino}-isophthalic Acid] | 2040 nM |
| Cn1c(-c2ccccc2)cc(C(=O)Nc2cc(C(=O)O)cc(C(=O)O)c2)c1CC12CC3CC(CC(C3)C1)C2 [Example 8, 5-[(2-Adamantan-1-ylmethyl-1-methyl-5-phenyl-1H-pyrrole-3-carbonyl)-amino]-isophthalic Acid] | 1020 nM |

Second part, the compound after the results:

| Ki | Compound |
| --- | --- |
| 38.9 nM | Cc1ccc(NC(=O)c2nc(-c3ccccc3C)n(C)c2CCC23CC4CC(CC(C4)C2)C3)cc1C(=O)O [Example 161, 5-{[5-(2-Adamantan-1-yl-ethyl)-1-methyl-2-o-tolyl-1H-imidazole-4-carbonyl]-amino}-2-methyl-benzoic Acid] |
| 1700 nM | O=C(O)c1cccc(NC(=O)c2nc(C3CCCCCCCCCCC3)[nH]c2CCC23CC4CC(CC(C4)C2)C3)c1 [Example 127, 3-{[5-(2-Adamantan-1-yl-ethyl)-2-cyclododecyl-1H-imidazole-4-carbonyl]-amino}-benzoic Acid] |
| 186 nM | Cc1ccccc1-c1nc(C(=O)Nc2ccc(CC(=O)O)cc2)c(CCC23CC4CC(CC(C4)C2)C3)[nH]1 [Example 99] |
| 776 nM | Cc1ccccc1-c1nc(CCc2cccc(C(=O)O)c2)c(C(=O)NC23CC4CC(CC(C4)C2)C3)[nH]1 [Example 118, 3-{2-[5(Adamantan-1-ylcarbamoyl)-2-o-tolyl-1H-imidazole-4-yl]-ethyl}-benzoic Acid] |
| 182 nM | COc1ccc(NC(=O)c2nc(-c3ccccc3C)[nH]c2CCC23CC4CC(CC(C4)C2)C3)cc1C(=O)O [Example 244, 5-{[5-(2-Adamantan-1-yl-ethyl)-2-o-tolyl-1H-imidazole-4-carbonyl]-amino}-2-methoxy-benzoic Acid] |
| 2000 nM | Cc1ccc(C(=O)O)cc1NC(=O)c1nc(-c2ccccc2C)[nH]c1CCC12CC3CC(CC(C3)C1)C2 [Example 239, 3-{[5-(2-Adamantan-1-yl-ethyl)-2-o-tolyl-1H-imidazole-4-carbonyl]-amino}-4-methyl-benzoic Acid] |
| 1550 nM | Cc1ccccc1-c1nc(C(=O)Nc2cccc(C(=O)O)c2)c(CCC23CC4CC(CC(C4)C2)C3)o1 [Example 120, 3-{[5-(2-Adamanatan-1-yl-ethyl)-2-o-tolyl-oxazole-4-carbonyl]-amino}-benzoic Acid] |
| 372 nM | Cc1ccccc1-c1nc(C(=O)Nc2cccc(C(=O)NS(=O)(=O)c3ccccc3)c2)c(CCC23CC4CC(CC(C4)C2)C3)[nH]1 [Example 101, 5-(2-Adamantan-1-yl-ethyl)-2-o-tolyl-1H-imidazole-4-carboxylic acid (3-benzenesulfonylaminocarbonyl-phenyl)-amide] |
| 676 nM | Cc1ncccc1-c1nc(C(=O)Nc2cccc(C(=O)O)c2)c(CCC23CC4CC(CC(C4)C2)C3)[nH]1 [Example 181, 3-{[5-(2-Adamantan-1-yl-ethyl)-2-(2-methyl-pyridine-3-yl)-1H-imidazole-4-carbonyl]-amino}-benzoic Acid] |
| 5370 nM | Cc1ccccc1-c1nc(C(=O)N2CCC(C(=O)O)CC2)c(CCC23CC4CC(CC(C4)C2)C3)[nH]1 (racemic) [Example 94, (±)-1-[5-(2-Adamantan-1-yl-ethyl)-2-o-tolyl-1H-imidazole-4-carbonyl]-piperidine-4-carboxylic Acid] |
| 2400 nM | Cc1ccccc1-c1nc(C(=O)Nc2cccc(C(=O)O)c2)c(CCC23CC4CC(CC(C4)C2)C3)s1 [Example 121, 3-{[5-(2-Adamanatan-1-yl-ethyl)-2-o-tolyl-thiazole-4-carbonyl]-amino}-benzoic Acid] |
| 5890 nM | Cc1ccccc1-c1nc(C(=O)Nc2cc(C(=O)O)ccc2F)c(CCC23CC4CC(CC(C4)C2)C3)[nH]1 [Example 238, 3-{[5-(2-Adamantan-1-yl-ethyl)-2-o-tolyl-1H-imidazole-4-carbonyl]-amino}-4-fluoro-benzoic Acid] |

Molecular target: T2, gastrin receptor (Rattus norvegicus, UniProt P30553)
T2 construct: The stomach was excised and flushed with ca. 1 ml of unbuffered physiological saline solution; from tissue; host or cells: isolated whole stomach of immature rats (ca. 21 days old)
T2 sequence (P30553 1-452): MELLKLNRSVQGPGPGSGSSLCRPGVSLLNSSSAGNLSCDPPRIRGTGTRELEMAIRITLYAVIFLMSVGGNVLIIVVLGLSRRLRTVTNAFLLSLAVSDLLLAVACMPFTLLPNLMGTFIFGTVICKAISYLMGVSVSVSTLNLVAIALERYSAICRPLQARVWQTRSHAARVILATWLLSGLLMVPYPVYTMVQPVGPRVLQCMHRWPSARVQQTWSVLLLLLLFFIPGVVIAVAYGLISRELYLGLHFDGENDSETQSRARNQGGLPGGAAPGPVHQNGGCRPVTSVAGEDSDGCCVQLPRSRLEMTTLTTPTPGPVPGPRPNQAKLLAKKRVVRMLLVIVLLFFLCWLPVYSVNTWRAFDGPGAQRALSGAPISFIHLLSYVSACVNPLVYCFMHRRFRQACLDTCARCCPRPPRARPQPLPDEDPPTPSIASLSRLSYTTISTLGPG
Experiment: gastrin antagonist activity in immature rat stomach assay (pentagastrin dose-response, acid secretion)
Conditions: isolated immature rat stomach, cumulative pentagastrin dose-response curves, read-out: Gastrin pKb (converted)
Outline: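 Isolated, lumen-perfused stomach from immature rats (33-50 g, ca. 21 days) in a 37° organ bath with 3×10^−8 M 5-methylfurmethide, gassed 95% O2/5% CO2. Compound added serosally after 120 min stabilisation; cumulative pentagastrin dose-response curves begun 60 min later, acid secretion followed by perfusate pH.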

| Kb | Compound |
| --- | --- |
| 81.3 nM | Cc1ccc(NC(=O)c2nc(-c3ccccc3C)n(C)c2CCC23CC4CC(CC(C4)C2)C3)cc1C(=O)O [Example 161, 5-{[5-(2-Adamantan-1-yl-ethyl)-1-methyl-2-o-tolyl-1H-imidazole-4-carbonyl]-amino}-2-methyl-benzoic Acid] |

From US6479531B1, “Gastrin and cholecystokinin receptor ligands” (James Black Foundation Limited, priority 1998, dated 2002)
